# Results published in ChEMBL document CHEMBL3132769, “Fragment growing to retain or alter the selectivity of anchored kinase hinge-binding fragments” (Medchemcomm, 2014).
# Experiments:
# [1] = system: Fibroblast growth factor receptor 2 (Homo sapiens), P21802 [N549H]; assay: Inhibition of human FGFR2 N549H mutant catalytic domain expressed in baculovirus assessed as substrate phosphorylation using fluorescence-labelled peptides as substrate at 9 uM after 90 mins by microfluidic peptide phosphorylation assay
# [2] = biological target: T1, Calcium/calmodulin-dependent protein kinase type IV (Homo sapiens) (UniProt Q16566); assay: Inhibition of human full length CAMK4 expressed in baculovirus assessed as substrate phosphorylation using fluorescence-labelled peptides as substrate at 0.06 uM after 90 mins by microfluidic peptide phosphorylation assay
# T1 sequence (whole entry): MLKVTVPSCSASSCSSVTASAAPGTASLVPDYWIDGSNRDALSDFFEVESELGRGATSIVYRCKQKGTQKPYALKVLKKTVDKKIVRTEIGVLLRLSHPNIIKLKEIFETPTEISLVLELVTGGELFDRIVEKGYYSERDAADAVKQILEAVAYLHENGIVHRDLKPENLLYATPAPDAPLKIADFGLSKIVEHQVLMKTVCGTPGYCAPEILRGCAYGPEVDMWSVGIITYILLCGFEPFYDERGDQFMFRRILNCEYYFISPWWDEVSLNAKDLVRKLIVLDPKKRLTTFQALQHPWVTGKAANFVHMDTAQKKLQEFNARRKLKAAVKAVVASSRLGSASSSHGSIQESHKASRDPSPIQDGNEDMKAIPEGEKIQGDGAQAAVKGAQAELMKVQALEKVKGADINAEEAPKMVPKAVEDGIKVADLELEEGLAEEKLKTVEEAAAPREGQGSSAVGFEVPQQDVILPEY
# [3] = biological target: T2, Protein kinase C zeta type (Homo sapiens) (UniProt Q05513); assay: Inhibition of human full length PKC zeta expressed in baculovirus assessed as substrate phosphorylation using fluorescence-labelled peptides as substrate at 70 uM after 90 mins by microfluidic peptide phosphorylation assay
# T2 sequence (whole entry): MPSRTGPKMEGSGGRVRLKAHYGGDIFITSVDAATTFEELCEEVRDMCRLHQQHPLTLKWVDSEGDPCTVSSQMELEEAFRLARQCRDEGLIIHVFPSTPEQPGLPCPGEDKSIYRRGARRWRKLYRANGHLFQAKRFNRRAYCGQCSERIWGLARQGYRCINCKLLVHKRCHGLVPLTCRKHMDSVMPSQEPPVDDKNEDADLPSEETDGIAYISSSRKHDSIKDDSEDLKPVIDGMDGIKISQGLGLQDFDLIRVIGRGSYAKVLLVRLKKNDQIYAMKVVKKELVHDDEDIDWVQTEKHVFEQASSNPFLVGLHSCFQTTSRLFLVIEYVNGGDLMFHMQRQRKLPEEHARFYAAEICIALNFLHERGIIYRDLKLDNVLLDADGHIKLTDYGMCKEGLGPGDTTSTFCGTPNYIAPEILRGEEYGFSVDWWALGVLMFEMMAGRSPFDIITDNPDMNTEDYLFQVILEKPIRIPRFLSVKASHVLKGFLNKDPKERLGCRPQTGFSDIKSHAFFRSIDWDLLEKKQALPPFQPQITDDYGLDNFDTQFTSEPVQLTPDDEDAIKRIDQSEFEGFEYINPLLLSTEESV
# [4] = biological target: MAP kinase p38 (Homo sapiens) (UniProt O15264+Q15759+Q16539+P53778); assay: Inhibition of human full length p38 beta2 expressed in Escherichia coli cell assessed as substrate phosphorylation using fluorescence-labelled peptides as substrate at 70 uM after 90 mins by microfluidic peptide phosphorylation assay
# [5] = biological target: Hepatocyte growth factor receptor (Homo sapiens) (UniProt P08581); assay: Inhibition of human MET cytoplasmic domain expressed in baculovirus assessed as substrate phosphorylation using fluorescence-labelled peptides as substrate at 0.2 uM after 90 mins by microfluidic peptide phosphorylation assay
# [6] = biological target: MAP kinase-activated protein kinase 3 (Homo sapiens) (UniProt Q16644); assay: Inhibition of human full length MAPKAPK3 expressed in Escherichia coli cell assessed as substrate phosphorylation using fluorescence-labelled peptides as substrate at 0.2 uM after 90 mins by microfluidic peptide phosphorylation assay
# [7] = biological target: Tyrosine-protein kinase HCK (Homo sapiens) (UniProt P08631); assay: Inhibition of human HCK catalytic domain expressed in baculovirus assessed as substrate phosphorylation using fluorescence-labelled peptides as substrate at 2 uM after 90 mins by microfluidic peptide phosphorylation assay
# [8] = biological target: T3, Serine/threonine-protein kinase BRSK1 (Homo sapiens) (UniProt Q8TDC3); assay: Inhibition of human full length BRSK1 expressed in baculovirus assessed as substrate phosphorylation using fluorescence-labelled peptides as substrate at 8 uM after 90 mins by microfluidic peptide phosphorylation assay
# T3 sequence (whole entry): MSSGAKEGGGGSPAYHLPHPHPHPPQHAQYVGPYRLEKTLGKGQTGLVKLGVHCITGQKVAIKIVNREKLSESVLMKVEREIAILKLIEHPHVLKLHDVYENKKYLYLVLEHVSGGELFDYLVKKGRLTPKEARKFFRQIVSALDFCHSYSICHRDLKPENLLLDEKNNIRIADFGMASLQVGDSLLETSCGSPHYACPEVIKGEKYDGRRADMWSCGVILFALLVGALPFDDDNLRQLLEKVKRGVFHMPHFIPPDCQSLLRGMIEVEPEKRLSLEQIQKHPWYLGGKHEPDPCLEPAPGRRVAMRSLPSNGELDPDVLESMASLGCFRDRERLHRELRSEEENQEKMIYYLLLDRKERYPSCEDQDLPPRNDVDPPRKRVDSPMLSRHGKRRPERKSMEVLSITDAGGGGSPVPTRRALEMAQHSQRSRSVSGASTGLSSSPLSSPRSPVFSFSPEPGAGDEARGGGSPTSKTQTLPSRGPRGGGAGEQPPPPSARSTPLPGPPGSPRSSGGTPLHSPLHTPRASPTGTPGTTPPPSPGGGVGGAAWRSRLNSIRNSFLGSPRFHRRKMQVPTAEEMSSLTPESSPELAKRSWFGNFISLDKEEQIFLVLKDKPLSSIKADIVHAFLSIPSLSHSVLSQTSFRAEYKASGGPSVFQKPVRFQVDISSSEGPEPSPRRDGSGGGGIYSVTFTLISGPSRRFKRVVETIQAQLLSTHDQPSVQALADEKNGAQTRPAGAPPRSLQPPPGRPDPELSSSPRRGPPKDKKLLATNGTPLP
# [9] = biological target: Serine/threonine-protein kinase PAK 2 (Homo sapiens) (UniProt Q13177); assay: Inhibition of human truncated PAK2 expressed in Escherichia coli cell assessed as substrate phosphorylation using fluorescence-labelled peptides as substrate at 8 uM after 90 mins by microfluidic peptide phosphorylation assay
# [10] = biological target: Proto-oncogene tyrosine-protein kinase Src (Homo sapiens) (UniProt P12931); assay: Inhibition of human full length SRC expressed in baculovirus assessed as substrate phosphorylation using fluorescence-labelled peptides as substrate at 8 uM after 90 mins by microfluidic peptide phosphorylation assay
# Proto-oncogene tyrosine-protein kinase Src (Homo sapiens), sequence (P12931 2-536 limits assumed): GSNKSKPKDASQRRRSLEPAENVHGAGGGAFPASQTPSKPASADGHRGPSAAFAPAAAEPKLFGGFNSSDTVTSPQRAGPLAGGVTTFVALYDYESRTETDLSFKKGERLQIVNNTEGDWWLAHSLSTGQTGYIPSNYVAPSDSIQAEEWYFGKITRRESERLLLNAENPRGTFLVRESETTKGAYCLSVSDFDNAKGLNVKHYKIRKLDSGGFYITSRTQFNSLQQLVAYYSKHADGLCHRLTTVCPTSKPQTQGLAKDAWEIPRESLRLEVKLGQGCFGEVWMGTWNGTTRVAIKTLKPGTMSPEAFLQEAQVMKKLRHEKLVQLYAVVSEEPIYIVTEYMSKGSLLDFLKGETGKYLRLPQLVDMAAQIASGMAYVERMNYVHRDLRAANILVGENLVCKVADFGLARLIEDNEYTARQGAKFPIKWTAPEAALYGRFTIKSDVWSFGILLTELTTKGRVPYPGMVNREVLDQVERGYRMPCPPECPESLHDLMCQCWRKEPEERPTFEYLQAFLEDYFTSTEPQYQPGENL
# Fibroblast growth factor receptor 2 (Homo sapiens), P21802 [N549H], sequence (P21802 whole entry N549H, the tested form may be a part): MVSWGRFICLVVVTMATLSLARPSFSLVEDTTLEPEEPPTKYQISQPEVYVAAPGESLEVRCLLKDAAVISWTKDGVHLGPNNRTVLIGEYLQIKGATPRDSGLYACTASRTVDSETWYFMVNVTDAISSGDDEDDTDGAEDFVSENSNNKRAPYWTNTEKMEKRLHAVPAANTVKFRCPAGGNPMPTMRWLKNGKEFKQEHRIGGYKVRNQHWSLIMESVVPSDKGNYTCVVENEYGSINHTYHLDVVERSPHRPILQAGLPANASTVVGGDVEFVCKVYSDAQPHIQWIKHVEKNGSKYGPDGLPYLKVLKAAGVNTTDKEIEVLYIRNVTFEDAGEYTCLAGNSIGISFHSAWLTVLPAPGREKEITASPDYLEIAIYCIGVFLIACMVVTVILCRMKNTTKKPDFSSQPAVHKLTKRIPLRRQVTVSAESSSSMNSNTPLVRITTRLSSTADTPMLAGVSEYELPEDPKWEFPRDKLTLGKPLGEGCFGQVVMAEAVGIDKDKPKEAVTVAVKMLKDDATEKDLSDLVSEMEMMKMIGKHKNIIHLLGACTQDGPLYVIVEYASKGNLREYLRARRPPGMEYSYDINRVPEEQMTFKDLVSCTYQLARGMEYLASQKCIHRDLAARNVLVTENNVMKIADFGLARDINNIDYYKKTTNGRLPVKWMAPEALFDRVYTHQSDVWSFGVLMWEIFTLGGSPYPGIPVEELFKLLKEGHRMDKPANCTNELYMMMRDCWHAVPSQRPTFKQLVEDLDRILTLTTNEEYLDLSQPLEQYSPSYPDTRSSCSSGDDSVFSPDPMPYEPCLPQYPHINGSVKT
# MAP kinase-activated protein kinase 3 (Homo sapiens), sequence (Q16644 whole entry, looked up, the tested form may be a part): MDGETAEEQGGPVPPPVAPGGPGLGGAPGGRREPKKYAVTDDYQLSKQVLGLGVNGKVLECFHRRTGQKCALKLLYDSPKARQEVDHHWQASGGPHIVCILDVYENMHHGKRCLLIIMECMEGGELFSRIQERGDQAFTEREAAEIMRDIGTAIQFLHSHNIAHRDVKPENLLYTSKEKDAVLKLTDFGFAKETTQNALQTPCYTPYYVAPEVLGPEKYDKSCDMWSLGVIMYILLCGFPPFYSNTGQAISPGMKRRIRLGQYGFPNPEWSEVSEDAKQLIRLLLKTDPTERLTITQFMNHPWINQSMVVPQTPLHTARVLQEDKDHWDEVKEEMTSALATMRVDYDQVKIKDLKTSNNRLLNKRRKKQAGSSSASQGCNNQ
# Serine/threonine-protein kinase PAK 2 (Homo sapiens), sequence (Q13177 whole entry, the tested form may be a part): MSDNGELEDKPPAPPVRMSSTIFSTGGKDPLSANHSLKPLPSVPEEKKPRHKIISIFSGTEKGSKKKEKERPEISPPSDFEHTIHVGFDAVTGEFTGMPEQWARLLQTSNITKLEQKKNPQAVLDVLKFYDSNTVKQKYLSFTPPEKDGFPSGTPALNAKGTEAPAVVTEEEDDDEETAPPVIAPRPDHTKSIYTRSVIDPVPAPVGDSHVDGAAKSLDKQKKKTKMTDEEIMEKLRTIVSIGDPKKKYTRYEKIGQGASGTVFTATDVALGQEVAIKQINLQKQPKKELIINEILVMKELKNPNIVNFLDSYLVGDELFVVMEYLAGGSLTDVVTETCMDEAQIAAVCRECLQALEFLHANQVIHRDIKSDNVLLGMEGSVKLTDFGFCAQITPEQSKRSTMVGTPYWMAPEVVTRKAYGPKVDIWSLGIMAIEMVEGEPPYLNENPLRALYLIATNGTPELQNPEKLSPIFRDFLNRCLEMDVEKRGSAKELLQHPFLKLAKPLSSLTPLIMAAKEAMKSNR
# Tyrosine-protein kinase HCK (Homo sapiens), sequence (P08631 2-526 limits assumed): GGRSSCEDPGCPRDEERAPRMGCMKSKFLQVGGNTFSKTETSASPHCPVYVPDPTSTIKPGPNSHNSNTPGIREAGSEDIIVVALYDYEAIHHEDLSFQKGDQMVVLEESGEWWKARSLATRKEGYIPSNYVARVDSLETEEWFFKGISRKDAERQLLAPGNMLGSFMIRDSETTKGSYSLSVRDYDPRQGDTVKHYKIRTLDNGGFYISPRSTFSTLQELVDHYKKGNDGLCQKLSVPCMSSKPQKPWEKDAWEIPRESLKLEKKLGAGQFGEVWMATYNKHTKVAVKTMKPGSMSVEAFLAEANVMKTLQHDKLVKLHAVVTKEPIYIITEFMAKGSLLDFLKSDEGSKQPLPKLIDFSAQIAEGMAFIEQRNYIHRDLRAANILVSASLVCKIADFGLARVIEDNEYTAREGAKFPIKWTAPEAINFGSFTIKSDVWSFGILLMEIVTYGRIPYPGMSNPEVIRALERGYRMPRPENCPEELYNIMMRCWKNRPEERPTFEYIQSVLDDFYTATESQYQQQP
# Hepatocyte growth factor receptor (Homo sapiens), sequence (P08581 whole entry, the tested form may be a part): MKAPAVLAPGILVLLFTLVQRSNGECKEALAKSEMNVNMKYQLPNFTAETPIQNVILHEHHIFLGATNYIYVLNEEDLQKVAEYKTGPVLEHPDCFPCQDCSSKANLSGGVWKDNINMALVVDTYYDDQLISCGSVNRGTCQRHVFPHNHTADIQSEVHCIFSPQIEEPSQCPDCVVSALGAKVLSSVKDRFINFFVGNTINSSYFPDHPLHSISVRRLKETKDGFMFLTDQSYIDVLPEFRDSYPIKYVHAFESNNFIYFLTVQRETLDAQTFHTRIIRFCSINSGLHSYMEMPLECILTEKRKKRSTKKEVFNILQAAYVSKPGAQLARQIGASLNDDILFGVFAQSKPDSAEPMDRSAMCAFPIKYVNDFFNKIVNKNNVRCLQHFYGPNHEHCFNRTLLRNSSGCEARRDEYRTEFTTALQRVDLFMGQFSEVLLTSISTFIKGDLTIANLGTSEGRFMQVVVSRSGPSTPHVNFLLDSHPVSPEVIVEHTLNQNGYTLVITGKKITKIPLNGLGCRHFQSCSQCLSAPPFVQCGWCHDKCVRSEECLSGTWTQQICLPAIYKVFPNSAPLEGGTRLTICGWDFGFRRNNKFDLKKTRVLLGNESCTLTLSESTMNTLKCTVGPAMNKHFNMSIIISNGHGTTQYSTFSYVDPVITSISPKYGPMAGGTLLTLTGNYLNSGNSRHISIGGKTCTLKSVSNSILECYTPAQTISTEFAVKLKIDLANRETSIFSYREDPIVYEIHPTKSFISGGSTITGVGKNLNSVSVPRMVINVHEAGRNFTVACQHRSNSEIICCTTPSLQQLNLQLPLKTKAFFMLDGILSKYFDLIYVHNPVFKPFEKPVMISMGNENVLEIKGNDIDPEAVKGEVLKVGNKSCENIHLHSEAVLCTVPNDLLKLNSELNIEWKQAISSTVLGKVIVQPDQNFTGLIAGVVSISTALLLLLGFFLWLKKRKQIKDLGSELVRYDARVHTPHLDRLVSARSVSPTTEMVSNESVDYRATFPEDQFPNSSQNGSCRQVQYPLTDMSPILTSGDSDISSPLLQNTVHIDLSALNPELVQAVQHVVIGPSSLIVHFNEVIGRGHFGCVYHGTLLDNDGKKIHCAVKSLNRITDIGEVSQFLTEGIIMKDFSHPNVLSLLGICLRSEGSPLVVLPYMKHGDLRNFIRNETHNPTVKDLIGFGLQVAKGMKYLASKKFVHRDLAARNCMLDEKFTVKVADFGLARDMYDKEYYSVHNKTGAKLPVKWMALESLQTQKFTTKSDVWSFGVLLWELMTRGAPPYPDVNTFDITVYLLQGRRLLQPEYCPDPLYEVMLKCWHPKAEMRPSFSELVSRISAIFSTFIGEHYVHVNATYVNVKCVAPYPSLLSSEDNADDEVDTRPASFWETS
smiles,measurement,setting,value
NCC1CN(c2ncnc3[nH]c4cnccc4c23)CCO1 (stereo not given),inhibition,[1],47.5%
NC1(Cc2ccc(Cl)cc2)CCN(c2ncnc3[nH]ccc23)CC1,inhibition,[2],6%
CNCc1ccc(-c2ncnc3[nH]cnc23)cc1,inhibition,[3],0%
same,inhibition,[4],1.5%
Clc1ccc(C2(c3ccc(-c4ncnc5[nH]cnc45)cc3)CCNCC2)cc1,inhibition,[5],9.5%
same,inhibition,[6],4%
NC1CCN(c2ncnc3[nH]ccc23)CC1,inhibition,[7],3%
NCC1CCN(c2ncnc3[nH]ccc23)CC1,inhibition,[8],56.5%
same,inhibition,[9],24.5%
same,inhibition,[10],1.5%
